Measured values: ChEMBL document CHEMBL1201862, “PubChem BioAssay data set” (2004)
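The compound was tested at five concentrations on cells cultured in 96-well plates, with a 48-hour exposure period. GI50: concentration for 50% inhibition of growth.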 Calls of active or inactive are those of the source. No stated cut-off is given here; in the data, active = GI50 up to about 1.1 µM and inactive = higher.

Experiments:
Experiment in all cases: NCI tumour cell line growth inhibition, 48 h
SF-295 = test system: SF-295
COLO 205 = test system: COLO 205
SF-268 = test system: SF-268
HOP-92 = test system: HOP-92
NCI-H23 = test system: NCI-H23
NCI-H460 = test system: NCI-H460
SNB-19 = test system: SNB-19
ACHN = test system: ACHN
HL-60 = test system: HL-60
IGROV-1 = test system: IGROV-1
NCI-H522 = test system: NCI-H522
A549 = test system: A549
UACC-62 = test system: UACC-62
OVCAR-4 = test system: OVCAR-4
SK-OV-3 = test system: SK-OV-3
OVCAR-8 = test system: OVCAR-8

Measured: GI50

CCOC(=O)/C(=C/c1cc(OC)ccc1OC)CC(=O)O
inactive: SF-295 > 100 µM | COLO 205 > 100 µM | SF-268 > 100 µM | HOP-92 > 100 µM | NCI-H23 > 100 µM | NCI-H460 > 100 µM | SNB-19 > 100 µM | ACHN > 100 µM | HL-60 > 31.6 µM | IGROV-1 > 100 µM | NCI-H522 > 100 µM | A549 > 100 µM | UACC-62 > 100 µM | OVCAR-4 > 100 µM | SK-OV-3 > 100 µM | OVCAR-8 > 100 µM

N#CC(=C1C=CC(=NO)C=C1)c1ccc(Cl)cc1
inactive: SF-295 16.6 µM | COLO 205 16.8 µM | SF-268 11.9 µM | HOP-92 20 µM | NCI-H23 23.7 µM | NCI-H460 18.2 µM | SNB-19 42.4 µM | ACHN 10.6 µM | HL-60 2.36 µM | IGROV-1 17.1 µM | NCI-H522 2.47 µM | A549 18.7 µM | UACC-62 3.71 µM | OVCAR-4 22.5 µM | SK-OV-3 22.2 µM | OVCAR-8 19.1 µM

CC(=O)O[C@]12CCCCC1C1(O)C(O)CCCCC12 (stereo partly specified)
inactive: SF-295 > 100 µM | COLO 205 > 100 µM | SF-268 > 100 µM | NCI-H23 > 100 µM | NCI-H460 > 100 µM | SNB-19 > 100 µM | ACHN 76 µM | HL-60 > 100 µM | NCI-H522 > 100 µM | A549 > 100 µM | UACC-62 > 100 µM | OVCAR-4 > 100 µM | SK-OV-3 > 100 µM | OVCAR-8 > 100 µM

O=C1CCC[C@]2(CCCC(=O)N2)C1
inactive: SF-295 > 100 µM | COLO 205 > 100 µM | SF-268 > 100 µM | HOP-92 > 100 µM | NCI-H23 > 100 µM | NCI-H460 > 100 µM | SNB-19 > 100 µM | ACHN > 100 µM | HL-60 > 100 µM | IGROV-1 > 100 µM | NCI-H522 > 100 µM | A549 > 100 µM | UACC-62 > 100 µM | OVCAR-4 > 100 µM | SK-OV-3 > 100 µM | OVCAR-8 > 100 µM

C=C(COC(C)=O)CC(OC(C)=O)c1ccccc1 (stereo unspecified)
inactive: SF-295 > 100 µM | COLO 205 > 100 µM | SF-268 > 100 µM | HOP-92 > 100 µM | NCI-H23 > 100 µM | NCI-H460 > 100 µM | SNB-19 > 100 µM | ACHN > 100 µM | HL-60 > 100 µM | IGROV-1 > 100 µM | NCI-H522 > 100 µM | A549 > 100 µM | UACC-62 > 100 µM | OVCAR-4 > 100 µM | SK-OV-3 > 100 µM | OVCAR-8 > 100 µM

COc1cc(/C=N/N=C(\N)NO)c(Cl)cc1O
inactive: SF-295 96.2 µM | COLO 205 38.2 µM | SF-268 85.1 µM | HOP-92 4.97 µM | NCI-H23 35.5 µM | NCI-H460 > 10 µM | SNB-19 > 100 µM | ACHN 42.5 µM | IGROV-1 > 100 µM | NCI-H522 31.4 µM | A549 38 µM | UACC-62 47.1 µM | OVCAR-4 43.8 µM | SK-OV-3 85.9 µM | OVCAR-8 49.5 µM

COc1cc(C2C(Cl)C(=O)N2n2cnc3ccccc3c2=O)ccc1O (stereo unspecified)
inactive: SF-295 > 100 µM | COLO 205 > 100 µM | SF-268 76.4 µM | NCI-H23 39.1 µM | NCI-H460 > 100 µM | SNB-19 > 100 µM | ACHN > 100 µM | HL-60 > 10 µM | IGROV-1 78.2 µM | NCI-H522 34 µM | A549 > 100 µM | UACC-62 60.8 µM | OVCAR-4 94.4 µM | SK-OV-3 68.9 µM | OVCAR-8 > 100 µM

Cc1cc(C)cc(NC(=O)CCC(=O)C2CCC/C2=N\NC(=O)C(=O)NN)c1 (stereo unspecified)
inactive: SF-295 > 100 µM | COLO 205 > 100 µM | SF-268 > 100 µM | NCI-H23 > 100 µM | NCI-H460 > 100 µM | SNB-19 > 100 µM | ACHN > 100 µM | HL-60 > 100 µM | IGROV-1 > 100 µM | A549 > 100 µM | UACC-62 > 100 µM | OVCAR-4 > 100 µM | SK-OV-3 > 100 µM | OVCAR-8 > 100 µM

[O-][S+]1CSSC1
inactive: SF-295 20.7 µM | COLO 205 17.1 µM | SF-268 26.2 µM | HOP-92 26.1 µM | NCI-H23 28.7 µM | SNB-19 41.6 µM | ACHN 25.1 µM | HL-60 2.56 µM | IGROV-1 22 µM | NCI-H522 11.4 µM | A549 33.9 µM | UACC-62 10.4 µM | OVCAR-4 16.7 µM | SK-OV-3 24.3 µM | OVCAR-8 19.6 µM

C/C(=C\Cc1cc(O)ccc1O)CCc1c(C)cc(O)c(C=O)c1C [PANICEIN B3]
inactive: SF-295 27 µM | COLO 205 17.7 µM | SF-268 15.8 µM | HOP-92 18.9 µM | NCI-H23 22.5 µM | NCI-H460 24.3 µM | SNB-19 44.5 µM | ACHN 17.5 µM | HL-60 34.6 µM | IGROV-1 23.2 µM | NCI-H522 10.1 µM | A549 27.4 µM | OVCAR-4 26.4 µM | SK-OV-3 32.7 µM | OVCAR-8 17.1 µM

COc1cc2c3cc1Oc1c(OC)c(OC)cc4c1[C@@H](Cc1ccc(O)c(c1)Oc1ccc(cc1)C[C@@H]3N(C)CC2)N(C)CC4.c1ccccc1
inactive: SF-295 16.4 µM | SF-268 23.2 µM | HOP-92 8.28 µM | NCI-H23 24.1 µM | NCI-H460 25.2 µM | SNB-19 20.4 µM | ACHN 17.3 µM | HL-60 10.2 µM | IGROV-1 20 µM | NCI-H522 7.55 µM | A549 22.5 µM | UACC-62 16 µM | OVCAR-8 16.8 µM

CC1=C(/C=C/C2=CC(=C\C(=O)O)/CC(C3=C(C)CCCC3(C)C)C2)C(C)(C)CCC1 (stereo unspecified)
inactive: SF-295 10.1 µM | COLO 205 16.4 µM | SF-268 20.9 µM | HOP-92 11.2 µM | NCI-H23 13.9 µM | NCI-H460 13.9 µM | SNB-19 14.3 µM | ACHN 10.4 µM | IGROV-1 13.2 µM | NCI-H522 10.6 µM | A549 4.8 µM | UACC-62 10.9 µM | OVCAR-4 13.7 µM | SK-OV-3 13.7 µM | OVCAR-8 14.7 µM

Cc1ccc(S(=O)(=O)c2ccc(C)cc2[N+](=O)[O-])c([N+](=O)[O-])c1
inactive: SF-295 > 100 µM | COLO 205 > 100 µM | SF-268 > 100 µM | NCI-H23 > 100 µM | NCI-H460 > 100 µM | SNB-19 > 100 µM | ACHN 44.9 µM | IGROV-1 > 100 µM | NCI-H522 > 100 µM | A549 > 100 µM | UACC-62 > 100 µM | OVCAR-4 89.9 µM | OVCAR-8 > 100 µM

Cc1ccc(S(=O)(=O)N(/N=C(\N)Oc2ccc(Cl)cc2)C(=N)Oc2ccc(Cl)cc2)cc1
inactive: SF-295 > 100 µM | COLO 205 > 100 µM | SF-268 > 100 µM | HOP-92 > 100 µM | NCI-H23 > 100 µM | NCI-H460 > 100 µM | SNB-19 > 100 µM | ACHN > 100 µM | HL-60 > 100 µM | IGROV-1 > 100 µM | NCI-H522 > 100 µM | A549 > 100 µM | UACC-62 > 100 µM | OVCAR-4 > 100 µM | SK-OV-3 > 100 µM | OVCAR-8 > 100 µM

O=C1CC(c2ccccc2)=Nc2ccccc2N1
inactive: SF-295 > 100 µM | COLO 205 98.9 µM | SF-268 > 100 µM | HOP-92 81.1 µM | NCI-H23 > 100 µM | NCI-H460 42 µM | SNB-19 > 100 µM | ACHN > 100 µM | HL-60 34.5 µM | IGROV-1 > 100 µM | NCI-H522 > 100 µM | A549 > 100 µM | UACC-62 > 100 µM | OVCAR-4 > 100 µM | SK-OV-3 > 100 µM | OVCAR-8 > 100 µM

O=C1CC(CC(=O)C2CCCCC2=O)C(=O)N1 (stereo unspecified)
inactive: SF-295 > 100 µM | COLO 205 > 100 µM | SF-268 > 100 µM | HOP-92 > 100 µM | NCI-H23 > 100 µM | NCI-H460 > 100 µM | SNB-19 > 100 µM | ACHN > 100 µM | HL-60 > 100 µM | IGROV-1 > 100 µM | NCI-H522 > 100 µM | A549 > 100 µM | UACC-62 > 100 µM | OVCAR-4 > 100 µM | SK-OV-3 > 100 µM | OVCAR-8 > 100 µM

N#CC1=C(O)NC(O)=C(C#N)C1c1ccc(C2C(C#N)=C(O)NC(O)=C2C#N)cc1
inactive: SF-295 > 100 µM | COLO 205 26.8 µM | SF-268 > 100 µM | NCI-H23 > 100 µM | NCI-H460 46.5 µM | SNB-19 > 100 µM | ACHN > 100 µM | HL-60 28.3 µM | IGROV-1 > 100 µM | NCI-H522 19.7 µM | A549 58.9 µM | UACC-62 > 100 µM | OVCAR-4 > 100 µM | SK-OV-3 > 100 µM | OVCAR-8 > 100 µM

CC1(C)CC(N2CCN(C3CC(C)(C)NC(C)(C)C3)CC2)CC(C)(C)N1
inactive: SF-295 > 100 µM | SF-268 > 100 µM | HOP-92 > 100 µM | NCI-H23 > 100 µM | NCI-H460 > 100 µM | SNB-19 > 100 µM | ACHN > 100 µM | HL-60 > 100 µM | IGROV-1 > 100 µM | NCI-H522 > 100 µM | A549 > 100 µM | UACC-62 > 100 µM | OVCAR-4 > 100 µM | SK-OV-3 > 100 µM | OVCAR-8 > 100 µM
